From patent US10138238B2, “Pesticidally active polycyclic derivatives with sulfur containing substituents” (Syngenta Participations AG, priority 2015, dated 2018)

Tests used:
Format in all cases: in vivo
[1] = test system: Diabrotica balteata (Corn Root Worm); assay: Example B2: Diabrotica balteata, maize sprouts, L2 larvae; details: 96 h, application rate of 200 ppm, 4 days after infestation, read-out: effect in at least one of the two categories (mortality or growth inhibition)
Description: (§1) Maize sprouts placed onto an agar layer in 24-well microtiter plates were treated with aqueous test solutions prepared from 10'000 ppm DMSO stock solutions by spraying. After drying, the plates were infested with L2 larvae (6 to 10 per well). The samples were assessed for mortality and growth inhibition in comparison to untreated samples 4 days after infestation. The following compounds gave an effect of at least 80% in at least one of the two categories (mortality or growth inhibition) at an application rate of 200 ppm: P1, P2, P3, P4, P5, P6, P7, P8, P9, P10, P11, P12, P13, P14, and P15.

[2] = test system: Euschistus heros (Neotropical Brown Stink Bug); assay: Example B3: Euschistus heros, soybean leaves, N2 nymphs; details: 120 h, application rate of 200 ppm, 5 days after infestation, read-out: effect in at least one of the two categories (mortality or growth inhibition)
Description: Soybean leaves on agar in 24-well microtiter plates were sprayed with aqueous test solutions prepared from 10'000 ppm DMSO stock solutions. After drying the leaves were infested with N2 nymphs. The samples were assessed for mortality and growth inhibition in comparison to untreated samples 5 days after infestation. The following compounds gave an effect of at least 80% in at least one of the two categories (mortality or growth inhibition) at an application rate of 200 ppm: • P1, P3, P8, P9, P10, P13, P14, and P15

[3] = test system: Plutella xylostella (Diamond Back Moth); assay: Example B6: Plutella xylostella, artificial diet, L2 larvae; details: 120 h, application rate of 200 ppm, 5 days after infestation, read-out: effect in at least one of the two categories (mortality or growth inhibition)
Description: (§2) 24-well microtiter plates with artificial diet were treated with aqueous test solutions prepared from 10'000 ppm DMSO stock solutions by pipetting. After drying, the plates were infested with L2 larvae (10 to 15 per well). The samples were assessed for mortality and growth inhibition in comparison to untreated samples 5 days after infestation. The following compounds gave an effect of at least 80% in at least one of the two categories (mortality or growth inhibition) at an application rate of 200 ppm: P1, P2, P3, P4, P6, P8, P9, P10, P11, P12, P13, P14 and P15.

[4] = test system: Spodoptera littoralis (Egyptian Cotton Leaf Worm); assay: Example B7: Spodoptera littoralis, cotton leaf discs, L1 larvae; details: foliar, 72 h, application rate of 200 ppm, 3 days after infestation
Description: (§3) Cotton leaf discs were placed onto agar in 24-well microtiter plates and sprayed with aqueous test solutions prepared from 10'000 ppm DMSO stock solutions. After drying the leaf discs were infested with five L1 larvae. The samples were assessed for mortality, anti-feeding effect, and growth inhibition in comparison to untreated samples 3 days after infestation. Control of Spodoptera littoralis by a test sample is given when at least one of the categories mortality, anti-feedant effect, and growth inhibition is higher than the untreated sample.

[5] = test system: Thrips tabaci (Onion Thrips); assay: Example B10: Thrips tabaci feeding/contact activity; details: 144 h, application rate of 200 ppm, 6 days after infestation
Description: (§4) Sunflower leaf discs were placed on agar in 24-well microtiter plates and sprayed with aqueous test solutions prepared from 10'000 ppm DMSO stock solutions. After drying the leaf discs were infested with a thrips population of mixed ages. The samples were assessed for mortality 6 days after infestation.

[6] = test system: Diabrotica balteata (Corn Root Worm); assay: Example B13: Breakpoint (BP80) against Diabrotica balteata; details: lowest concentration which gives 80% larval mortality; larval feeding/contact
Description: as §1
(§5) Insecticidal action against Diabrotica balteata (Corn root worm), Plutella xylostella (Diamond black moth), and Spodoptera littoralis (Egyptian cotton leaf worm). The tests were carried out as described in biological examples B2, B6 and B7, respectively, with the larval feeding/contact activity being reported as Breakpoint (BP80) values in parts per million (i.e. the lowest concentration which gives 80% larval mortality).

[7] = test system: Plutella xylostella (Diamond black moth); assay: Example B13: Breakpoint (BP80) against Plutella xylostella; details: lowest concentration which gives 80% larval mortality; larval feeding/contact
Description: as §2, §5

[8] = test system: Spodoptera littoralis (Egyptian Cotton Leaf Worm); assay: Example B13: Breakpoint (BP80) against Spodoptera littoralis; details: lowest concentration which gives 80% larval mortality; larval feeding/contact
Description: as §3, §5

[9] = test system: Myzus persicae (Green Peach Aphid); assay: Example B4: Myzus persicae feeding/contact activity; details: 144 h, application rate of 200 ppm, 6 days after infestation
Description: Sunflower leaf discs were placed onto agar in a 24-well microtiter plate and sprayed with aqueous test solutions prepared from 10'000 ppm DMSO stock solutions. After drying, the leaf discs were infested with an aphid population of mixed ages. The samples were assessed for mortality 6 days after infestation.

[10] = test system: Myzus persicae (Green Peach Aphid); assay: Example B5: Myzus persicae systemic activity; details: 144 h, test rate of 24 ppm, pea seedling roots, 6 days
Description: Roots of pea seedlings infested with an aphid population of mixed ages were placed directly into aqueous test solutions prepared from 10'000 DMSO stock solutions. The samples were assessed for mortality 6 days after placing seedlings into test solutions.

[11] = test system: Spodoptera littoralis (Egyptian Cotton Leaf Worm); assay: Example B8: Spodoptera littoralis systemic activity; details: 144 h, test rate of 12.5 ppm, lettuce, 6 days after infestation, read-out: effect in at least one of the three categories (mortality, anti-feeding, or growth inhibition)
Text: Test compounds were applied by pipette from 10'000 ppm DMSO stock solutions into 24-well plates and mixed with agar. Lettuce seeds were placed onto the agar and the multi well plate was closed by another plate which contained also agar. After 7 days the compound was absorbed by the roots and the lettuce grew into the lid plate. The lettuce leaves were then cut off into the lid plate. Spodoptera eggs were pipetted through a plastic stencil onto a humid gel blotting paper and the lid plate was closed with it. The samples were assessed for mortality, anti-feedant effect and growth inhibition in comparison to untreated samples 6 days after infestation. The following compounds gave an effect of at least 80% in at least one of the three categories (mortality, anti-feeding, or growth inhibition) at a test rate of 12.5 ppm: • P10, P13, P14 and P15.

[12] = test system: Tetranychus urticae (Two-Spotted Spider Mite); assay: Example B9: Tetranychus urticae feeding/contact activity; details: 192 h
Description: as §4, with “Bean” for “Sunflower”, “discs” for “discs were placed”, “were” for “and”, “mite” for “thrips”, “on mixed population (mobile stages) 8” for “6”

SMILES	percent effect (mortality or growth inhibition) at 200 ppm [1]	percent effect (mortality or growth inhibition) at 200 ppm [2]	percent effect (mortality or growth inhibition) at 200 ppm [3]	percent control (mortality, anti-feedant effect or growth inhibition) at 200 ppm [4]	mortality at 200 ppm [5]	BP80 Values Diabrotica balteata [6]	BP80 Values Plutella xylostella [7]	BP80 Values Spodoptera littoralis [8]	mortality at 200 ppm [9]	mortality at 24 ppm [10]	percent effect (mortality, anti-feeding or growth inhibition) at 12.5 ppm [11]	mortality at 200 ppm [12]
CCS(=O)(=O)c1ccc(-n2ccc(C(F)(F)F)n2)nc1-c1nc2cc(C(F)(F)F)ncc2n1C [Compound P3, 2-[3-ethylsulfonyl-6-[3-(trifluoromethyl)pyrazol-1-yl]-2-pyridyl]-3-methyl-6-(trifluoromethyl)imidazo[4,5-c]pyridine]	≥ 80%	≥ 80%	≥ 80%	≥ 80%	≥ 80%	0.8 ppm	12 ppm	0.8 ppm	–	–	–	–
CCS(=O)(=O)c1ccc(-c2ncccn2)nc1-c1nc2cc(SC(F)(F)F)ncc2n1C [Compound P10, 2-(3-ethylsulfonyl-6-pyrimidin-2-yl-2-pyridyl)-3-methyl-6-(trifluoromethylsulfanyl)imidazo[4,5-c]pyridine]	≥ 80%	≥ 80%	≥ 80%	≥ 80%	≥ 80%	–	–	–	≥ 80%	≥ 80%	≥ 80%	≥ 80%
